In brackets after ≈: the same amount, converted by molar mass. Read-outs that look alike come from different tables or passages of the source.
Assays:
Type in all cases: cell-based
[1] = test system: Bacillus subtilis (Bs); experiment: Minimum inhibitory concentration (MIC) in nutrient agar, Bacillus subtilis
Experimental: (§1) The antimicrobial activity of the compounds of the present invention is set forth as the minimum inhibitory concentration (MIC) for the active compounds and is determined for nine (9) bacteria, using nutrient agar, and seven (7) yeast and fungi, using malt yeast agar. This determination is conducted using a one percent solution of the test compound prepared in a mixture of acetone and water.
(§2) Nutrient agar is prepared at pH 6.8, representing a neutral medium, and at pH 8.2, representing an alkaline medium. The nutrient agars are prepared by adding 23 g of nutrient agar to one-liter of deionized water. In addition, the alkaline medium is prepared by adjusting a 0.04M solution of N-[tris-(hydroxymethyl)methyl]glycine buffered deionized water with concentrated sodium hydroxide to a pH of 8.5.
(§3) The test tubes containing the agar are cooled in a water bath until the temperature of the agar is 48° C. Then, an appropriate amount of the one percent solution of the test compound is added (except in the controls where no compound is added) to the respective test tubes so that the final concentrations are 500, […], 100, 50, 25, 10, 5, 2.5, 1.0 and zero parts per million of the test compound in the agar, thus having a known concentration of test compound dispersed therein. The contents of the test tubes are then transferred to respective petri plates. After drying for 24 hours, the petri plates containing nutrient agar are inoculated with bacteria and those containing malt yeast agar are inoculated with yeast and fungi.
(§4) The inoculation with bacteria is accomplished by using the following procedure. Twenty-four hour-cultures of each of the bacteria are prepared by incubating the respective bacteria in tubes containing nutrient broth for 24 hours at 30° C. in a shaker. Dilutions of each of the 24 hour-cultures are made so that nine separate suspensions (one for each of the nine test bacteria) are made, each containing 10^8 colony forming units (CFU) per mL of suspension of a particular bacteria. Aliquots of 0.3 mL of each of the bacterial suspensions are used to fill the individual wells of Steer's Replicator. For each microbial suspension, 0.3 mL was used to fill three wells (i.e., three wells of 0.3 mL each) so that for the nine different bacteria, 27 wells are filled. The Steer's Replicator is then used to inoculate both the neutral and alkaline pH nutrient agar petri plates.
(§5) The inoculated petri plates are incubated at 30° C. for 48 hours and then read to determine if the test compound which is incorporated into the agar prevented growth of the respective bacteria.

[2] = test system: Enterobacter aerogenes (Ea); experiment: Minimum inhibitory concentration (MIC) in nutrient agar, Enterobacter aerogenes; settings: Klebsiella aerogenes
Experimental: as §1, §2, §3, §4, §5

[3] = test system: Escherichia coli (Ec); experiment: Minimum inhibitory concentration (MIC) in nutrient agar, Escherichia coli
Experimental: as §1, §2, §3, §4, §5

[4] = test system: Klebsiella pneumoniae (Kp); experiment: Minimum inhibitory concentration (MIC) in nutrient agar, Klebsiella pneumoniae
Experimental: as §1, §2, §3, §4, §5

[5] = test system: Proteus vulgaris (Pv); experiment: Minimum inhibitory concentration (MIC) in nutrient agar, Proteus vulgaris
Experimental: as §1, §2, §3, §4, §5

[6] = test system: Pseudomonas aeruginosa (PRD-10); experiment: Minimum inhibitory concentration (MIC) in nutrient agar, Pseudomonas aeruginosa PRD-10
Experimental: as §1, §2, §3, §4, §5

[7] = test system: Pseudomonas aeruginosa (Pa); experiment: Minimum inhibitory concentration (MIC) in nutrient agar, Pseudomonas aeruginosa; settings: 30° C., 48 hours, read-out: Minimum Inhibitory Concentration, Pa
Experimental: as §1, §2, §3, §4, §5

[8] = test system: Salmonella choleraesuis (Se); experiment: Minimum inhibitory concentration (MIC) in nutrient agar, Salmonella choleraesuis; settings: Salmonella enterica
Experimental: as §1, §2, §3, §4, §5

[9] = test system: Staphylococcus aureus (Sa); experiment: Minimum inhibitory concentration (MIC) in nutrient agar, Staphylococcus aureus
Experimental: as §1, §2, §3, §4, §5

[10] = test system: Aspergillus niger (An); experiment: Minimum inhibitory concentration (MIC) in malt yeast agar, Aspergillus niger
Experimental: as §1
(§6) Malt yeast agar is prepared at pH 5.5 by adding 3 g yeast extract and 45 g malt agar per liter of deionized water. The specific agar is dispensed in 30 mL aliquots into 25×200 mm test tubes, capped and autoclaved for 15 minutes at 115° C.
as §3
(§7) The inoculation with the yeast and fungi is accomplished as follows. Cultures of yeast and fungi are incubated for seven days on malt yeast agar at 30° C. These cultures are used to prepare suspensions by the following procedure. A suspension of each organism is prepared by adding 10 mL of sterile saline and 10 microliters of octylphenoxy polyethoxy ethanol to the agar slant of yeast or fungi. The sterile saline/octylphenoxy potyethoxy ethanol solution is then agitated with a sterile swab to suspend the microorganism grown on the slant. Each resulting suspension is diluted into sterile saline (1 part suspension: 9 parts sterile saline). Aliquots of these dilutions are placed in individual wells of Steer's Replicator and petri plates inoculated as previously described. The petri plates are incubated at 30° C. and read after 48 hours for yeast and 72 hours for fungi.

[11] = test system: Candida albicans (Ca); experiment: Minimum inhibitory concentration (MIC) in malt yeast agar, Candida albicans
Experimental: as §1, §6, §3, §7

[12] = test system: Penicillium chrysogenum (Pc); experiment: Minimum inhibitory concentration (MIC) in malt yeast agar, Penicillium chrysogenum; settings: 72 h, pH 5.5, read-out: Minimum Inhibitory Concentration, PC
Experimental: as §1, §6, §3, §7

[13] = test system: Saccharomyces cerevisiae (Sc); experiment: Minimum inhibitory concentration (MIC) in malt yeast agar, Saccharomyces cerevisiae; settings: pH 5.5, malt yeast agar, 30° C., 48 hours for yeast, read-out: Minimum Inhibitory Concentration, SC
Experimental: as §1, §6, §3, §7

[14] = test system: Trichoderma viride (Tv); experiment: Minimum inhibitory concentration (MIC) in malt yeast agar, Trichoderma viride; settings: pH 5.5; malt yeast agar, 30° C., 72 hours for fungi; read-out: Minimum Inhibitory Concentration, Tv
Experimental: as §1, §6, §3, §7

[15] = test system: Aureobasidium pullulan (Ap); experiment: Minimum inhibitory concentration (MIC) in malt yeast agar, Aureobasidium pullulan
Experimental: as §1, §6, §3, §7

[16] = test system: Fusarium oxysporum (Fo); experiment: Minimum inhibitory concentration (MIC) in malt yeast agar, Fusarium oxysporum; settings: pH 5.5; malt yeast agar, 30° C., 72 hours for fungi; read-out: Minimum Inhibitory Concentration, Fo
Experimental: as §1, §6, §3, §7

[17] = pH 6.8, nutrient agar, 30° C., 48 hours, read-out: Minimum Inhibitory Concentration, Bs
[18] = 48 h, pH 8.2, read-out: Minimum Inhibitory Concentration, Ea
[19] = 48 h, pH 6.8, read-out: Minimum Inhibitory Concentration, Ec
[20] = pH 6.8, nutrient agar, 30° C., 48 hours, read-out: Minimum Inhibitory Concentration, Kp
[21] = pH 6.8, nutrient agar, 30° C., 48 hours, read-out: Minimum Inhibitory Concentration, Sa

With `N#CSc1nsnc1-c1ccc(F)cc1` [Example V, 4-(4-Fluorophenyl)-3-thiocyanato-1,2,5-thiadiazole] the MIC [1, 17] was < 10 µg/mL, the MIC ([1]; pH 8.2, nutrient agar, 30° C., 48 hours, read-out: Minimum Inhibitory Concentration, Bs) was 50 µg/mL (≈ 211 µM) and the MIC [2, 18] was 500 µg/mL (≈ 2110 µM). For the same molecule, the MIC ([2]; pH 6.8, nutrient agar, 30° C., 48 hours, read-out: Minimum Inhibitory Concentration, Ea) was 250 µg/mL (≈ 1050 µM), the MIC [3, 19] was 50 µg/mL (≈ 211 µM) and the MIC ([3]; pH 8.2, nutrient agar, 30° C., 48 hours, read-out: Minimum Inhibitory Concentration, Ec) was 250 µg/mL (≈ 1050 µM). For the same molecule, the MIC [4, 20] was 100 µg/mL (≈ 421 µM), the MIC ([4]; pH 8.2, nutrient agar, 30° C., 48 hours, read-out: Minimum Inhibitory Concentration, Kp) was 100 µg/mL (≈ 421 µM) and the MIC ([5]; pH 6.8, nutrient agar, 30° C., 48 hours, read-out: Minimum Inhibitory Concentration, Pv) was 25 µg/mL (≈ 105 µM). For the same molecule, the MIC ([5]; pH 8.2, nutrient agar, 30° C., 48 hours, read-out: Minimum Inhibitory Concentration, Pv) was 100 µg/mL (≈ 421 µM), the MIC ([6]; pH 6.8, nutrient agar, 30° C., 48 hours, read-out: Minimum Inhibitory Concentration, PRD) was 250 µg/mL (≈ 1050 µM) and the MIC ([6]; pH 8.2, nutrient agar, 30° C., 48 hours, read-out: Minimum Inhibitory Concentration, PRD) was 250 µg/mL (≈ 1050 µM). It also gave an MIC ([7]; pH 6.8, nutrient agar) of 100 µg/mL (≈ 421 µM), an MIC ([7]; pH 8.2, nutrient agar) of 100 µg/mL (≈ 421 µM) and an MIC ([8]; pH 6.8, nutrient agar, 30° C., 48 hours, read-out: Minimum Inhibitory Concentration, SC) of 100 µg/mL (≈ 421 µM). For the same molecule, the MIC ([8]; pH 8.2, nutrient agar, 30° C., 48 hours, read-out: Minimum Inhibitory Concentration, SC) was 250 µg/mL (≈ 1050 µM), the MIC [9, 21] was 25 µg/mL (≈ 105 µM) and the MIC ([9]; pH 8.2, nutrient agar, 30° C., 48 hours, read-out: Minimum Inhibitory Concentration, Sa) was 50 µg/mL (≈ 211 µM). The MIC ([10]; pH 5.5, malt yeast agar, 30° C., 72 hours for fungi, read-out: Minimum Inhibitory Concentration, An) was 5 µg/mL (≈ 21.1 µM), the MIC ([11]; 48 h, pH 5.5, read-out: Minimum Inhibitory Concentration, Ca) was 25 µg/mL (≈ 105 µM) and the MIC [12] was 2.5 µg/mL (≈ 10.5 µM). The MIC [13] was 5 µg/mL (≈ 21.1 µM), the MIC [14] was 25 µg/mL (≈ 105 µM) and the MIC ([15]; pH 5.5, read-out: Minimum Inhibitory Concentration, Ap) was 2.5 µg/mL (≈ 10.5 µM). It also gave an MIC [16] of 10 µg/mL (≈ 42.1 µM).

Molecule `COC(=O)c1ccc(-c2nsnc2SC#N)cc1` [Example XII] has an MIC ([1]; 48 h, pH 8.2, read-out: Minimum Inhibitory Concentration, Bs) of 500 µg/mL (≈ 1800 µM), an MIC [1, 17] of 25 µg/mL (≈ 90.1 µM) and an MIC ([2]; 48 h, pH 6.8, read-out: Minimum Inhibitory Concentration, Ea) of 500 µg/mL (≈ 1800 µM). The MIC [2, 18] was 500 µg/mL (≈ 1800 µM), the MIC [3, 19] was 500 µg/mL (≈ 1800 µM) and the MIC ([3]; 48 h, pH 8.2, read-out: Minimum Inhibitory Concentration, Ec) was 500 µg/mL (≈ 1800 µM). The MIC ([4]; 48 h, pH 8.2, read-out: Minimum Inhibitory Concentration, Kp) was 500 µg/mL (≈ 1800 µM), the MIC [4, 20] was 500 µg/mL (≈ 1800 µM) and the MIC ([5]; 48 h, pH 6.8, read-out: Minimum Inhibitory Concentration, Pv) was 500 µg/mL (≈ 1800 µM). The MIC ([5]; 48 h, pH 8.2, read-out: Minimum Inhibitory Concentration, Pv) was 500 µg/mL (≈ 1800 µM), the MIC ([6]; 48 h, pH 6.8, read-out: Minimum Inhibitory Concentration, PRD) was 500 µg/mL (≈ 1800 µM) and the MIC ([6]; 48 h, pH 8.2, read-out: Minimum Inhibitory Concentration, PRD) was 500 µg/mL (≈ 1800 µM). For the same molecule, the MIC ([7]; pH 6.8, nutrient agar) was 500 µg/mL (≈ 1800 µM), the MIC ([7]; pH 8.2, nutrient agar) was 500 µg/mL (≈ 1800 µM) and the MIC ([8]; 48 h, pH 6.8, read-out: Minimum Inhibitory Concentration, SC) was 500 µg/mL (≈ 1800 µM). The MIC ([8]; 48 h, pH 8.2, read-out: Minimum Inhibitory Concentration, SC) was 500 µg/mL (≈ 1800 µM), the MIC ([9]; 48 h, pH 8.2, read-out: Minimum Inhibitory Concentration, Sa) was 500 µg/mL (≈ 1800 µM) and the MIC [9, 21] was 500 µg/mL (≈ 1800 µM). The MIC ([10]; 72 h, pH 5.5, read-out: Minimum Inhibitory Concentration, An) was 25 µg/mL (≈ 90.1 µM), the MIC ([11]; pH 5.5, malt yeast agar, 30° C., 48 hours for yeast, read-out: Minimum Inhibitory Concentration, Ca) was 10 µg/mL (≈ 36.1 µM) and the MIC [12] was 100 µg/mL (≈ 361 µM). The MIC [13] was 10 µg/mL (≈ 36.1 µM), the MIC ([15]; pH 5.5, malt yeast agar, 30° C., read-out: Minimum Inhibitory Concentration, Ap) was 10 µg/mL (≈ 36.1 µM) and the MIC [16] was 10 µg/mL (≈ 36.1 µM).

From US5488060A, “Substituted thiadiazoles, compositions containing them and their use as antimicrobial and marine antifouling agents” (The Dow Chemical Company, priority 1994, dated 1996)
